Molecular target: T1, KCNQ2/3 channels (Homo sapiens, UniProt O43525+O43526)
T1 construct: expressed in transfected cells; host or cells: CHO-K1 cells kept under selection antibiotics
Assay: Fluorescence assay using a voltage sensitive dye (fluorimetry)
Type: cell-based
Settings: CHO-K1 cells expressing KCNQ2/3 channels; for Emax: relative to retigabine = 100%, read-out: Fluorimetry % efficacy (retigabine = 100%); for EC50: voltage-sensitive dye, read-out: Fluorimetry EC50/IC50
Procedure: Method I. Fluorescence Assay Using a Voltage Sensitive Dye (Fluorimetry) […] CHO-K1 cells expressing KCNQ2/3 channels are cultivated adherently at 37° C., 5% CO2 and 95% humidity in cell culture bottles (e.g. 80 cm^2 TC flasks, Nunc) with DMEM-high glucose (Sigma Aldrich, D7777) including 10% FCS (PAN Biotech, e.g. 3302-P270521) or alternatively MEM Alpha Medium (1×, liquid, Invitrogen, #22571), 10% fetal calf serum (FCS) (Invitrogen, #10270-106, heat-inactivated) and the necessary selection antibiotics.
Before being sown out for the measurements, the cells are washed with 1×DPBS buffer Ca^2+/Mg^2+-free (e.g. Invitrogen, #14190-094) and detached from the bottom of the culture vessel by using Accutase (PAA Laboratories, #L11-007) (incubation with Accutase for 15 min at 37° C.). The cell number is determined using a CASY™ cell counter (TCC, Scharfe System). Depending on the optimal density for each individual cell line, 20,000-30,000 cells/well/100 μl are seeded onto 96-well Corning™ CeIIBIND™ assay plates (Flat Clear Bottom Black Polystyrene Microplates, #3340). Freshly seeded cells are then left to settle for one hour at room temperature, followed by incubation for 24 hours at 37° C., 5% CO2 and 95% humidity.
The voltage-sensitive fluorescent dye from the Membrane Potential Assay Kit (Red™ Bulk format part R8123 for FLIPR, MDS Analytical Technologies™) is prepared by dissolving the contents of one vessel Membrane Potential Assay Kit Red Component A in 200 ml of extracellular buffer (ES buffer, 120 mM NaCl, 1 mM KCl, 10 mM HEPES, 2 mM CaCl2, 2 mM MgCl2, 10 mM glucose; pH 7.4). After removal of the nutrient medium, the cells are washed once with 200 μl of ES buffer, then loaded for 45 min at room temperature in 100 μl of dye solution in the dark.
Fluorescence measurements are carried out in a BMG Labtech FLUOstar™, BMG Labtech NOVOstar™ or BMG Labtech POLARstar™ instrument (525 nm excitation, 560 nm emission, Bottom Read mode). After incubation with the dye, 50 μl of the test substances in the desired concentrations, or 50 μl of ES buffer for control purposes, are applied to the wells of the assay plate and incubated for 30 min at room temperature while being shielded from light. The fluorescence intensity of the dye is then measured for 5 min and the fluorescence value F1 of each well is thus determined at a given, constant time. 15 μl of a KCl solution are then added to each well (final concentration of potassium ions 92 mM). The change in fluorescence intensity is subsequently monitored until all the relevant values have been obtained (mainly 5-30 min). At a given time post KCl application, a fluorescence value F2 is determined, in this case at the time of the fluorescence peak.
For calculation, the fluorescence intensity F2 is corrected for the fluorescence intensity F1, and the activity (ΔF/F) of the target compound on the potassium channel is determined as follows:
In order to determine whether a substance has agonistic activity, is determined by adding to the well only the buffer solution instead of the test substance, determining the value F1K of the fluorescence intensity, adding the potassium ions as described above, and measuring a value F2K of the fluorescence intensity. F2K and F1K are then calculated as follows: […]
A substance has an agonistic activity on the potassium channel if it is possible to conclude that a target compound has agonistic activity if Calculations of EC50 and IC50 values are carried out with the aid of ‘Prism v4.0’ software (GraphPad Software™).

| Structure (SMILES) | Emax | EC50 |
| --- | --- | --- |
| CC(C)c1nc(N2CCOCC2)cnc1C(=O)NCc1ccc(Cl)cc1 [Example 7, N-[(4-Chlorophenyl)-methyl]-3-isopropyl-5-morpholin-4-yl-pyrazine-2-carboxylic acid amide] | 109% | 482 nM |
| COc1nc(N2CCOCC2)nc(OC)c1C(=O)NCc1ccc(Cl)cc1 [Example 2, N-[(4-Chlorophenyl)-methyl]-4,6-dimethoxy-2-morpholin-4-yl-pyrimidine-5-carboxylic acid amide] | 147% | 315 nM |
| CCC(C)c1nc(N2CCOCC2)cnc1C(=O)NCCC1CCCC1 (centres unmarked) [Example 21, N-(2-Cyclopentyl-ethyl)-3-(1-methyl-propyl)-5-morpholin-4-yl-pyrazine-2-carboxylic acid amide] | 132% | 1050 nM |
| CC(C)c1nc(N(C)CC2CCOCC2)sc1C(=O)NC(C)c1cccc(OC(F)(F)F)c1 (centres unmarked) [Example 22, 4-Isopropyl-2-[methyl-(tetrahydro-pyran-4-yl-methyl)-amino]-N-[1-[3-(trifluoromethyloxy)-phenyl]-ethyl]-thiazole-5-carboxylic acid amide] | 78% | 459 nM |
| CC(C)c1nc(N2CCOCC2)sc1C(=O)NCc1ccc(Cl)cc1 [Example 25, N-[(4-Chlorophenyl)-methyl]-4-isopropyl-2-morpholin-4-yl-thiazole-5-carboxylic acid amide] | 48% | 1260 nM |
| CC(C)c1nc(N(C)C2CCOCC2)sc1C(=O)NCc1ccc(Cl)cc1 [Example 23, N-[(4-Chlorophenyl)-methyl]-4-isopropyl-2-(methyl-tetrahydro-pyran-4-yl-amino)-thiazole-5-carboxylic acid amide] | 98% | 1140 nM |

Further molecules by falling EC50, results first:

| Emax | EC50 | Structure (SMILES) |
| --- | --- | --- |
| 145% | 1470 nM | CCSc1cc(N2CCOCC2)nc(C)c1C(=O)NCc1ccc(F)cc1 [Example 12, 4-Ethylsulfanyl-N-[(4-fluorophenyl)-methyl]-2-methyl-6-morpholin-4-yl-pyridine-3-carboxylic acid amide] |
| 102% | 1260 nM | CN(c1nc(C(F)(F)F)c(C(=O)NCc2ccc(Cl)cc2)s1)C1CCOCC1 [Example 38, N-[(4-Chlorophenyl)-methyl]-2-(methyl-tetrahydro-pyran-4-yl-amino)-4-(trifluoromethyl)-thiazole-5-carboxylic acid amide] |
| 125% | 1100 nM | CN(c1nc(C(F)(F)F)c(C(=O)NCc2cccc(OC(F)(F)F)c2)s1)C1CCOCC1 [Example 36, 2-(Methyl-tetrahydro-pyran-4-yl-amino)-4-(trifluoromethyl)-N-[[3-(trifluoromethyloxy)-phenyl]-methyl]-thiazole-5-carboxylic acid amide] |
| 180% | 499 nM | Cc1nc(N2CCOCC2)cc(C(C)C)c1C(=O)NCc1ccc(Cl)cc1 [Example 17, N-[(4-Chlorophenyl)-methyl]-4-isopropyl-2-methyl-6-morpholin-4-yl-pyridine-3-carboxylic acid amide] |
| 104% | 379 nM | CC(C)c1nc(N(C)C2CCOCC2)sc1C(=O)NC(C)c1cccc(OC(F)(F)F)c1 (centres unmarked) [Example 9, 4-Isopropyl-2-(methyl-tetrahydro-pyran-4-yl-amino)-N-[1-[3-(trifluoromethyloxy)-phenyl]ethyl]-thiazole-5-carboxylic acid amide] |
| 176% | 194 nM | CCSc1cc(N2CCOC[C@H]2C)nc(C)c1C(=O)NCc1ccc(Cl)cc1 [Example 14, N-[(4-Chlorophenyl)-methyl]-4-ethylsulfanyl-2-methyl-6-[(3R)-3-methyl-morpholin-4-yl]-pyridine-3-carboxylic acid amide] |
| 247% | 82 nM | CCSc1cc(N2CCOC[C@H]2C)nc(C)c1C(=O)NCCCC(C)(C)C [Example 15, N-(4,4-Dimethyl-pentyl)-4-ethylsulfanyl-2-methyl-6-[(3R)-3-methyl-morpholin-4-yl]-pyridine-3-carboxylic acid amide] |
